According to ChEMBL document CHEMBL4406842, “Synthesis and in vitro biological evaluation of novel derivatives of Flexicaulin A condensation with amino acid trifluoroacetate” (Eur J Med Chem, 2019):

Legend:
A549 = assay: Antiproliferative activity against human A549 cells assessed as reduction in cell viability incubated for 72 hrs by SRB assay; assay type: functional, cell-based; settings: A549, 72 h
[1] = Solubility of compound in water; assay type: physicochemical; settings: buffer
MGC-803 = assay: Antiproliferative activity against human MGC803 cells assessed as reduction in cell viability incubated for 72 hrs by SRB assay; assay type: functional, cell-based; settings: MGC-803, 72 h
MCF7 = assay: Antiproliferative activity against human MCF7 cells assessed as reduction in cell viability incubated for 72 hrs by SRB assay; assay type: functional, cell-based; settings: MCF7, 72 h
TE-1 = assay: Antiproliferative activity against human TE1 cells assessed as reduction in cell viability incubated for 72 hrs by SRB assay; assay type: functional, cell-based; settings: TE-1, 72 h

SMILES	IC50 (A549) [µM]	solubility [1]	IC50 (MGC-803) [µM]	IC50 (MCF7) [µM]	IC50 (TE-1) [nM]
C=C1C(=O)[C@]23[C@H](OC(=O)[C@@H]4CCCCN4)[C@H]1C[C@H](O)[C@H]2[C@]1(COC(C)=O)CCCC(C)(C)[C@H]1C[C@H]3OC.O=C(O)C(F)(F)F	2.84	Soluble	7.15	3.49	3160
C=C1C(=O)[C@]23[C@H](O)[C@H]1C[C@H](O)[C@H]2[C@]1(COC(C)=O)CCCC(C)(C)[C@H]1C[C@H]3OC	1.77		1.11	1.65	4400
C=C1C(=O)[C@]23[C@H](OC(=O)[C@@H](N)CCSC)[C@H]1C[C@H](O)[C@H]2[C@]1(COC(C)=O)CCCC(C)(C)[C@H]1C[C@H]3OC.O=C(O)C(F)(F)F	1.96	Soluble	3.66	3.1	1600
C=C1C(=O)[C@@]23[C@H](O)C[C@@H]4C(C)(C)CCC[C@@]4(COC(C)=O)[C@@H]2[C@@H](O)C[C@@H]1[C@H]3O [FLEXICANLIN A]	6.77	Insoluble	9.94	5.45	5070
C=C1C(=O)[C@]23[C@H](OC(=O)CCCCN)[C@H]1C[C@H](O)[C@H]2[C@]1(COC(C)=O)CCCC(C)(C)[C@H]1C[C@H]3OC.O=C(O)C(F)(F)F	1.62	Soluble	7.15	7.89	3160
C=C1C(=O)[C@]23[C@H](OC(=O)[C@H](CCSC)NC(=O)OC(C)(C)C)[C@H]1C[C@H](O)[C@H]2[C@]1(COC(C)=O)CCCC(C)(C)[C@H]1C[C@H]3OC	4.63	Insoluble	2.86	2.27	1330
C=C1C(=O)[C@]23[C@H](OC(=O)[C@H](C(C)C)N(C)C(=O)OC(C)(C)C)[C@H]1C[C@H](O)[C@H]2[C@]1(COC(C)=O)CCCC(C)(C)[C@H]1C[C@H]3OC	9.5	Insoluble	5.47	7.1	5410
C=C1C(=O)[C@]23[C@H](OC(=O)[C@@H]4CCCN4)[C@H]1C[C@H](O)[C@H]2[C@]1(COC(C)=O)CCCC(C)(C)[C@H]1C[C@H]3OC.O=C(O)C(F)(F)F	7.51	Soluble	5.02	5.1	4280
C=C1C(=O)[C@]23[C@H](OC(=O)[C@@H](N)CCc4ccccc4)[C@H]1C[C@H](O)[C@H]2[C@]1(COC(C)=O)CCCC(C)(C)[C@H]1C[C@H]3OC.O=C(O)C(F)(F)F	3.35	Soluble	1.06	1.81	2980
C=C1C(=O)[C@]23[C@H](OC(=O)CN)[C@H]1C[C@H](O)[C@H]2[C@]1(COC(C)=O)CCCC(C)(C)[C@H]1C[C@H]3OC.O=C(O)C(F)(F)F	3.86	Soluble	3.15	2.57	1850
C=C1C(=O)[C@]23[C@H](OC(=O)[C@@H]4CCCCN4C(=O)OC(C)(C)C)[C@H]1C[C@H](O)[C@H]2[C@]1(COC(C)=O)CCCC(C)(C)[C@H]1C[C@H]3OC	3.57	Insoluble	3	2.69	1460
C=C1C(=O)[C@]23[C@H](OC(=O)[C@H](C)N(C)C(=O)OC(C)(C)C)[C@H]1C[C@H](O)[C@H]2[C@]1(COC(C)=O)CCCC(C)(C)[C@H]1C[C@H]3OC	5.41	Insoluble	3.29	2.05	1040
C=C1C(=O)[C@]23[C@H](OC(=O)[C@@H](N)CC)[C@H]1C[C@H](O)[C@H]2[C@]1(COC(C)=O)CCCC(C)(C)[C@H]1C[C@H]3OC.O=C(O)C(F)(F)F	4.42	Soluble	3.88	3.75	2570
C=C1C(=O)[C@]23[C@H](OC(=O)CCCCCN)[C@H]1C[C@H](O)[C@H]2[C@]1(COC(C)=O)CCCC(C)(C)[C@H]1C[C@H]3OC.O=C(O)C(F)(F)F	11.4	Soluble	5.14	3.68	5360
C=C1C(=O)[C@]23[C@H](OC(=O)[C@@H](N)CCCN)[C@H]1C[C@H](O)[C@H]2[C@]1(COC(C)=O)CCCC(C)(C)[C@H]1C[C@H]3OC.O=C(O)C(F)(F)F.O=C(O)C(F)(F)F	8.04	Soluble	5.28	6.55	2710
C=C1C(=O)[C@]23[C@H](OC(=O)[C@@H]4CCCN4C(=O)OC(C)(C)C)[C@H]1C[C@H](O)[C@H]2[C@]1(COC(C)=O)CCCC(C)(C)[C@H]1C[C@H]3OC	5.9	Insoluble	2.81	3.7	2780
C=C1C(=O)[C@]23[C@H](OC(=O)[C@@H](N)Cc4ccccc4)[C@H]1C[C@H](O)[C@H]2[C@]1(COC(C)=O)CCCC(C)(C)[C@H]1C[C@H]3OC.O=C(O)C(F)(F)F	2.71	Soluble	1	1.01	1880
C=C1C(=O)[C@]23[C@H](OC(=O)CNC(=O)OC(C)(C)C)[C@H]1C[C@H](O)[C@H]2[C@]1(COC(C)=O)CCCC(C)(C)[C@H]1C[C@H]3OC	4.24	Insoluble	5.71	1.7	1640
C=C1C(=O)[C@]23[C@H](OC(=O)[C@@H](NC)C(C)C)[C@H]1C[C@H](O)[C@H]2[C@]1(COC(C)=O)CCCC(C)(C)[C@H]1C[C@H]3OC.O=C(O)C(F)(F)F	1.89	Soluble	1.64	3.2	1160
C=C1C(=O)[C@]23[C@H](OC(=O)[C@H](C)NC)[C@H]1C[C@H](O)[C@H]2[C@]1(COC(C)=O)CCCC(C)(C)[C@H]1C[C@H]3OC.O=C(O)C(F)(F)F	2.79	Soluble	6.34	5.03	3320
C=C1C(=O)[C@]23[C@H](OC(=O)[C@H](CCCC)NC(=O)OC(C)(C)C)[C@H]1C[C@H](O)[C@H]2[C@]1(COC(C)=O)CCCC(C)(C)[C@H]1C[C@H]3OC	11	Insoluble	11.2	4.42	4490
C=C1C(=O)[C@]23[C@H](OC(=O)CNC)[C@H]1C[C@H](O)[C@H]2[C@]1(COC(C)=O)CCCC(C)(C)[C@H]1C[C@H]3OC.O=C(O)C(F)(F)F	5.86	Soluble	5.35	3.62	3190
C=C1C(=O)[C@]23[C@H](OC(=O)[C@@H](NC(=O)OC(C)(C)C)C(C)C)[C@H]1C[C@H](O)[C@H]2[C@]1(COC(C)=O)CCCC(C)(C)[C@H]1C[C@H]3OC	3.94	Insoluble	2.88	2.73	1680
C=C1C(=O)[C@]23[C@H](OC(=O)[C@H](CC)NC(=O)OC(C)(C)C)[C@H]1C[C@H](O)[C@H]2[C@]1(COC(C)=O)CCCC(C)(C)[C@H]1C[C@H]3OC	4.81	Insoluble	4.85	3.09	1740
C=C1C(=O)[C@]23[C@H](O)[C@H]1CC[C@H]2[C@@]12CO[C@]3(O)[C@@H](O)[C@@H]1C(C)(C)CC[C@@H]2O [ORIDONIN]	13.5		14.1	22	12700
C=C1C(=O)[C@]23[C@H](OC(=O)[C@H](C)NC(=O)OC(C)(C)C)[C@H]1C[C@H](O)[C@H]2[C@]1(COC(C)=O)CCCC(C)(C)[C@H]1C[C@H]3OC	5.63	Insoluble	2.64	2.36	1070
C=C1C(=O)[C@]23[C@H](OC(=O)[C@@H](NC(=O)OC(C)(C)C)c4ccccc4)[C@H]1C[C@H](O)[C@H]2[C@]1(COC(C)=O)CCCC(C)(C)[C@H]1C[C@H]3OC	2.94	Insoluble	2.21	1.58	870
C=C1C(=O)[C@]23[C@H](OC(=O)[C@H](CCCCNC(=O)OC(C)(C)C)NC(=O)OC(C)(C)C)[C@H]1C[C@H](O)[C@H]2[C@]1(COC(C)=O)CCCC(C)(C)[C@H]1C[C@H]3OC	6.46	Insoluble	5.43	4.06	2760
C=C1C(=O)[C@]23[C@H](OC(=O)[C@@H](N)CCCC)[C@H]1C[C@H](O)[C@H]2[C@]1(COC(C)=O)CCCC(C)(C)[C@H]1C[C@H]3OC.O=C(O)C(F)(F)F	1.54	Soluble	3.22	2.51	2640
C=C1C(=O)[C@]23[C@H](OC(=O)[C@H](C)N)[C@H]1C[C@H](O)[C@H]2[C@]1(COC(C)=O)CCCC(C)(C)[C@H]1C[C@H]3OC.O=C(O)C(F)(F)F	3.96	Soluble	10.5	7.37	3070
